According to PubChem BioAssay AID2060496 (Molecular Pharmacology Branch, DTP, NCI, 2025):

Tested on: 276233-004-R-J1-PDC complex spheroid viability
Test: Anticancer human tumor 276233-004-R-J1-PDC patient-derived colon adenocarcinoma cell line growth inhibition [GQUAD]
Details: for IC50: curve of first compound; for viability, T/C: stronger effect = lower value
Description: DNA G-quadruplex Stabilizer Agents in Combinations in Complex Spheroids
A high-throughput screen of multi-cell type tumor spheroids was designed to identify active combinations of DNA G-quadruplex stabilizer agents and targeted small molecules. Complex spheroids include a stromal component modeled by human endothelial cells (HUVEC) and fibroblasts modeled by human mesenchymal stem cells (MSCs). The concentration ranges selected for each drug and investigational agent were based upon clinically achievable concentrations if the clinical Cmax of the agent was known.
Compounds. The drugs and investigational agents: pidnarulex (CX-5461; NSC782164), APTO-253 (NSC789042), BRACO-19 (NSC847499), peposertib (NSC802822), ceralasertib (NSC780249), elimusertib (NSC800525), camonsertib (NSC841442), AZD-1390 (NSC803789), olaparib (NSC753686), talazoparib (NSC767125), ART-558 (NSC835418), sotorasib (NSC818433), MRTX-1133 (NSC836407), SN-38 (NSC673596), topotecan (NSC609699), etoposide (NSC141540), doxorubicin (NSC123127), gemcitabine (NSC613327), 5-fluorouracil (NSC19893), paclitaxel (NSC125973), vemurafenib (NSC761431), panobinostat (NSC761190), R-306465 (JNJ-16241199; NSC773264), adavosertib (NSC754352), TP-3654 (NSC805149), carboplatin (NSC241240), KSQ-4279 (NSC840948), and staurosporine (NSC755774) were obtained from the National Cancer Institute (NCI) Developmental Therapeutics Program Chemical Repository (34). The FDA-approved anticancer drug set is available from the NCI Developmental Therapeutics Program. […] The stock solutions were prepared in dimethyl sulfoxide (DMSO, Sigma-Aldrich, St. Louis, MO, cat. D2650) at 800-fold the tested concentration and stored at -70 degrees C prior to their use. All drugs and investigational agents were tested over a range starting from a high concentration at or near the clinical Cmax and decreasing in half-log increments. If the clinical Cmax for an agent had not been determined, the highest concentration tested was 10 microM.
2.3 Cell Culture. All cells were maintained in an incubator at 37 degrees C and 5% CO2 with 95% humidity. The PDC lines were cultured according to standard operating procedures established by the NCI PDMR. All PDCs were thawed and cultured in Matrigel-coated flasks prepared with a working solution of 1X Ham's F-12 nutrient mix, without supplementation (Invitrogen, cat. 11765054), 100 U/mL penicillin-streptomycin (Invitrogen, cat. 15140122), and 2.5% Matrigel (Corning Inc., cat. 354248) for the first three passages. The 857933-349-R-J2-PDC line was cultured in 6C/Colon 1B media, which includes advanced DMEM/F-12 (Thermo Fisher Scientific, cat. 12634028), 10 mM HEPES (Thermo Fisher Scientific, cat. 15630080), 1X GlutaMAX supplement (Thermo Fisher Scientific, cat. 35050061), 0.1 mg/mL primocin (InvivoGen, cat. ant-pm-2), 10% defined fetal bovine serum, heat inactivated (HyClone Laboratories Inc., cat. SH30070.03HI), 50% L-WRN conditioned media (ATCC, cat. CRL-3276), 1.25 mM N-Acetyl-L-cysteine (Sigma-Aldrich, cat. A9165), 10 mM nicotinamide (Sigma-Aldrich, cat. N0636), 1X B-27 supplement (Thermo Fisher Scientific, cat. 17504044), 1X N-2 supplement (Thermo Fisher Scientific, cat. 17502048), 10 microM Y-27632 dihydrochloride (Tocris Bioscience, cat. 1254), and 50 ng/mL human EGF recombinant protein (Thermo Fisher Scientific, cat. PHG0311). The 485176-168-R4-J1-PDC line was cultured in Panc media, which includes all 6C/Colon 1B media components plus 100 ng/mL human FGF-10 (Thermo Fisher Scientific, cat. 100-26), 500 nM SB-431542 (Selleckchem, cat. S1067), and gastrin (Tocris, cat. 3006).
[…]

[1] = second compound 0.0316 µM, first compound 0.0316 µM
[2] = second compound 0.0316 µM, first compound 0.316 µM
[3] = second compound 0.1 µM, first compound 0.0316 µM
[4] = second compound 0.1 µM, first compound 0.316 µM
[5] = second compound 0.316 µM, first compound 0.0316 µM
[6] = second compound 0.316 µM, first compound 0.316 µM
[7] = second compound 1 µM, first compound 0.0316 µM
[8] = second compound 1 µM, first compound 0.316 µM
[9] = second compound 3.16 µM, first compound 0.0316 µM
[10] = second compound 3.16 µM, first compound 0.316 µM
[11] = second compound 10 µM, first compound 0.0316 µM
[12] = second compound 10 µM, first compound 0.316 µM
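Note: spheroids exposed to drugs for seven days.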
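Throughout, for viability, T/C: 100% = DMSO vehicle control viability.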

`CCc1c2c(nc3ccc(O)cc13)-c1cc3c(c(=O)n1C2)COC(=O)[C@]3(O)CC` + Cc1cnc(CNC(=O)c2c(=O)c3ccc(N4CCCN(C)CC4)nc3n3c2sc2ccccc23)cn1 gave an IC50 (second compound 0.0316 µM) of over 316 nM, an IC50 (second compound 0.1 µM) of over 316 nM and an IC50 (second compound 0.316 µM) of over 316 nM. The IC50 (second compound 1 µM) was over 316 nM, the IC50 (second compound 3.16 µM) was over 316 nM and the IC50 (second compound 10 µM) was over 316 nM. The viability, T/C (second compound 0.0316 µM, first compound 0.000999 µM) was 96.8%, the viability, T/C (second compound 0.0316 µM, first compound 0.00316 µM) was 92.2% and the viability, T/C (second compound 0.0316 µM, first compound 0.00999 µM) was 90.9%. For the same compound, the viability, T/C [1] was 90%, the viability, T/C (second compound 0.0316 µM, first compound 0.0999 µM) was 99.4% and the viability, T/C [2] was 103%. It also gave a viability, T/C (second compound 0.1 µM, first compound 0.000999 µM) of 97.9%, a viability, T/C (second compound 0.1 µM, first compound 0.00316 µM) of 90.4% and a viability, T/C (second compound 0.1 µM, first compound 0.00999 µM) of 90.6%. For the same compound, the viability, T/C [3] was 110%, the viability, T/C (second compound 0.1 µM, first compound 0.0999 µM) was 94.2% and the viability, T/C [4] was 89.2%. It also gave a viability, T/C (second compound 0.316 µM, first compound 0.000999 µM) of 91.6%, a viability, T/C (second compound 0.316 µM, first compound 0.00316 µM) of 103% and a viability, T/C (second compound 0.316 µM, first compound 0.00999 µM) of 105%. It also gave a viability, T/C [5] of 84.8%, a viability, T/C (second compound 0.316 µM, first compound 0.0999 µM) of 85.8% and a viability, T/C [6] of 79.4%. The viability, T/C (second compound 1 µM, first compound 0.000999 µM) was 85.4%, the viability, T/C (second compound 1 µM, first compound 0.00316 µM) was 74.7% and the viability, T/C (second compound 1 µM, first compound 0.00999 µM) was 84.7%. It also gave a viability, T/C [7] of 77%, a viability, T/C (second compound 1 µM, first compound 0.0999 µM) of 83.2% and a viability, T/C [8] of 76.2%. For the same compound, the viability, T/C (second compound 3.16 µM, first compound 0.000999 µM) was 81.6%, the viability, T/C (second compound 3.16 µM, first compound 0.00316 µM) was 96.1% and the viability, T/C (second compound 3.16 µM, first compound 0.00999 µM) was 80.2%. It also gave a viability, T/C [9] of 67.4%, a viability, T/C (second compound 3.16 µM, first compound 0.0999 µM) of 85.1% and a viability, T/C [10] of 71.5%. For the same compound, the viability, T/C (second compound 10 µM, first compound 0.000999 µM) was 72.4%, the viability, T/C (second compound 10 µM, first compound 0.00316 µM) was 88.4% and the viability, T/C (second compound 10 µM, first compound 0.00999 µM) was 75.5%. For the same compound, the viability, T/C [11] was 65.5%, the viability, T/C (second compound 10 µM, first compound 0.0999 µM) was 77.8% and the viability, T/C [12] was 62%.
Work on `COc1cccc2c1C(=O)c1c(O)c3c(c(O)c1C2=O)CC(O)(C(=O)CO)CC3OC1CC(N)C(O)C(C)O1` (centres undefined) + Cc1[nH]c2ccc(F)cc2c1-c1nc2c3cccnc3c3ncccc3c2[nH]1 yielded an IC50 (second compound 0.0316 µM) of 2480 nM, an IC50 (second compound 0.1 µM) of 4570 nM and an IC50 (second compound 0.316 µM) of 3270 nM. It also gave an IC50 (second compound 1 µM) of 3600 nM, an IC50 (second compound 3.16 µM) of 415 nM and an IC50 (second compound 10 µM) of under 31.6 nM. For the same compound, the viability, T/C [1] was 79.4%, the viability, T/C (second compound 0.0316 µM, first compound 0.1 µM) was 79.9% and the viability, T/C [2] was 108%. For the same compound, the viability, T/C (second compound 0.0316 µM, first compound 1 µM) was 64.9%, the viability, T/C (second compound 0.0316 µM, first compound 3.16 µM) was 53% and the viability, T/C (second compound 0.0316 µM, first compound 10 µM) was 39%. The viability, T/C [3] was 82.6%, the viability, T/C (second compound 0.1 µM, first compound 0.1 µM) was 96.3% and the viability, T/C [4] was 75.3%. For the same compound, the viability, T/C (second compound 0.1 µM, first compound 1 µM) was 89.1%, the viability, T/C (second compound 0.1 µM, first compound 3.16 µM) was 54.2% and the viability, T/C (second compound 0.1 µM, first compound 10 µM) was 40.9%. The viability, T/C [5] was 82.6%, the viability, T/C (second compound 0.316 µM, first compound 0.1 µM) was 82.6% and the viability, T/C [6] was 81.3%. For the same compound, the viability, T/C (second compound 0.316 µM, first compound 1 µM) was 77.2%, the viability, T/C (second compound 0.316 µM, first compound 3.16 µM) was 50.5% and the viability, T/C (second compound 0.316 µM, first compound 10 µM) was 34.2%. The viability, T/C [7] was 57.2%, the viability, T/C (second compound 1 µM, first compound 0.1 µM) was 78.3% and the viability, T/C [8] was 70.1%. The viability, T/C (second compound 1 µM, first compound 1 µM) was 70.9%, the viability, T/C (second compound 1 µM, first compound 3.16 µM) was 52.1% and the viability, T/C (second compound 1 µM, first compound 10 µM) was 33.8%. The viability, T/C [9] was 50.7%, the viability, T/C (second compound 3.16 µM, first compound 0.1 µM) was 63.5% and the viability, T/C [10] was 52.3%. The viability, T/C (second compound 3.16 µM, first compound 1 µM) was 41.4%, the viability, T/C (second compound 3.16 µM, first compound 3.16 µM) was 43.3% and the viability, T/C (second compound 3.16 µM, first compound 10 µM) was 35.7%. The viability, T/C [11] was 50%, the viability, T/C (second compound 10 µM, first compound 0.1 µM) was 44.4% and the viability, T/C [12] was 49.1%. The viability, T/C (second compound 10 µM, first compound 1 µM) was 47.6%, the viability, T/C (second compound 10 µM, first compound 3.16 µM) was 39.7% and the viability, T/C (second compound 10 µM, first compound 10 µM) was 27.6%.
